According to article PMC11610137, “TRIM4 enhances small-molecule-induced neddylated-degradation of CORO1A for triple negative breast cancer therapy” (Theranostics, 2024):

Target: T1, Coronin 1A (CORO1A) (Homo sapiens, UniProt P31146)
T1 construct: EGFP-tagged CORO1A overexpressed in HEK 293T cells (lysate)
Assay: MST with EGFP-CORO1A cell lysate; supported by CETSA and DARTS in MDA-MB-231 cells
Type: binding

T1 sequence (P31146 2-461): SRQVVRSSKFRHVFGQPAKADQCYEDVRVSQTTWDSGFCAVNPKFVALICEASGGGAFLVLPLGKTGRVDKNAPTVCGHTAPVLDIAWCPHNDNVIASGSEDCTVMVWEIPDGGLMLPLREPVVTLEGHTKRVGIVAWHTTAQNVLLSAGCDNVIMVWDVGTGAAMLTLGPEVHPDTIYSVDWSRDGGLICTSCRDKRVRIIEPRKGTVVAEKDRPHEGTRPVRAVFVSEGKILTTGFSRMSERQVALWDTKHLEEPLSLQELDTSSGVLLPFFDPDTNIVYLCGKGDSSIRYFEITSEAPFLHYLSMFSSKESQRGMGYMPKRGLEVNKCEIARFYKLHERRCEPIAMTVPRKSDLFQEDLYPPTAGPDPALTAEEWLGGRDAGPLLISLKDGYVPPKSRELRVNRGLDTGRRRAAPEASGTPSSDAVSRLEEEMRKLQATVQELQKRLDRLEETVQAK

In the case of Aurovertin B [AB], the Kd is reported as 352 nM.
